Data set [1] relates to phospho-MEK in MEL-JUSO cells. Kind of data set: pMEK/tMEK ratio in MEL-JUSO melanoma model. Type of data set: cell-based. The conditions noted are these: MEL-JUSO (HRAS p.G13D, NRAS p.Q61L); 100 nM. Here is the method:
(§1) Compound (drug) treatment: Cells were plated in a 6-well plate at a density of 250,000-300,000 cells/well in 3 mL media and incubated 37° C. in a humidified, 5% CO2 incubator. […] These solutions were added to the cells (3 uL/well), mixed by swirling the plate, and incubated at 37° C. in a humidified, 5% CO2 incubator for 2 hours.
(§2) Cell lysis and protein estimation: Cells were washed with PBS, and scraped in 50 μL of lysis buffer containing protease and phosphatase inhibitors. Cell lysates were stored at −20° C. Cell lysates were thawed and spun at 12,000 rpm for one minute, 3 ul of the supernatant was added to 500 μL of Coomassie blue reagent following by 500 μL of water. […] Protein standards were used (0-20 mg/mL) to calculate protein concentrations of test samples.
(§3) All samples were heated at 95° C. for 5 minutes, cooled to room temperature and spun down. […] After the run, gel was removed and protein transfer was done using iBlot for 7 minutes, as per manufacturer's recommendations. After the transfer, nitrocellulose membrane was incubated on a shaker in 5 mL of blocking buffer at room temperature for 1 hr. The blot was then incubated overnight on a shaker in 5 ml of blocking buffer containing 0.2% Tween-20 and primary antibody, at room temperature. Anti-phospho-STAT3 antibody was used at a dilution of 1:500, the other 3 primary antibodies were used at a dilution of 1:1000.
(§4) Next day, the blot was washed 3 times for 10 min each with 10 mL of TBST followed by incubation on a shaker in 5 ml of blocking buffer containing 0.2% Tween-20 and 0.5 ul of the IRDye labeled secondary antibodies, diluted 1:10000, at room temperature for 1 hr. The blot was then washed 3 times for 10 min each with 10 mL of TBST and dried between sheets of paper towels. Imaging was done using LICOR's Odyssey imaging system, quantitation was done using their software, Image Studio version 3.1.
(§5) The nine models are described in Table 16.

For data set [2], the system named is phospho-ERK in Hs852.T cells. The data set is described as follows: pERK/tERK ratio in Hs852.T melanoma model. Type of data set: cell-based. The conditions noted are these: Hs852.T (NRAS p.G12V); 100 nM. As to the method:
as §1, §2, §3, §4, §5

Data set [3] concerns phospho-MEK in MM415 cells. Kind of data set: pMEK/tMEK ratio in MM415 melanoma model. Type of data set: cell-based. Conditions: MM415 (NRAS p.Q61L); 100 nM. As to the method: as §1, §2, §3, §4, §5
The subject of data set [4] is phospho-ERK in MEL-JUSO cells. The data set is described as follows: pERK/tERK ratio in MEL-JUSO melanoma model. Type of data set: cell-based. Conditions: MEL-JUSO (HRAS p.G13D, NRAS p.Q61L); 100 nM. As to the method:
as §1, §2, §3, §4, §5

In data set [5] the test system is phospho-MEK in SK-MEL-30 cells. The data set is described as follows: pMEK/tMEK ratio in SK-MEL-30 melanoma model. It is filed as cell-based. The conditions noted are these: SK-MEL-30 (NRAS p.Q61K); 100 nM. Here is the method:
as §1, §2, §3, §4, §5

The test system of data set [6] is phospho-MEK in SK-MEL-28 cells. The data set is described as follows: pMEK/tMEK ratio in SK-MEL-28 melanoma model. Type of data set: cell-based. Conditions: SK-MEL-28 (BRAF p.V600E); 100 nM. As to the method:
as §1, §2, §3, §4, §5

Data set [7] deals with phospho-MEK in A375 cells. The data set is described as follows: pMEK/tMEK ratio in A375 melanoma model. It is filed as cell-based. The conditions noted are these: A375 (BRAF p.V600E); 100 nM. Here is the method: as §1, §2, §3, §4, §5
The conditions of data set [8]: PubChem Compound Summary; cited from earlier work.
Data set [9] deals with phospho-MEK in SK-MEL-2 cells. Kind of data set: pMEK/tMEK ratio in SK-MEL-2 melanoma model. Type of data set: cell-based. The conditions noted are these: SK-MEL-2 (NRAS p.Q61R); 100 nM. As to the method:
as §1, §2, §3, §4, §5

Data set [10] relates to phospho-ERK in SK-MEL-30 cells. Kind of data set: pERK/tERK ratio in SK-MEL-30 melanoma model. Type of data set: cell-based. The conditions noted are these: SK-MEL-30 (NRAS p.Q61K); 100 nM. Here is the method:
as §1, §2, §3, §4, §5

Data set [11] deals with phospho-MEK in MeWo cells. The data set is described as follows: pMEK/tMEK ratio in MeWo melanoma model. Type of data set: cell-based. Conditions: MeWo (NF1 LoF); 100 nM. Here is the method: as §1, §2, §3, §4, §5
The subject of data set [12] is phospho-ERK in SK-MEL-28 cells. Kind of data set: pERK/tERK ratio in SK-MEL-28 melanoma model. Type of data set: cell-based. Conditions: SK-MEL-28 (BRAF p.V600E); 100 nM. Here is the method: as §1, §2, §3, §4, §5
The subject of data set [13] is phospho-MEK in Hs852.T cells. Kind of data set: pMEK/tMEK ratio in Hs852.T melanoma model. It is filed as cell-based. Conditions: Hs852.T (NRAS p.G12V); 100 nM. As to the method:
as §1, §2, §3, §4, §5

The test system of data set [14] is phospho-ERK in A375 cells. The data set is described as follows: Cell-based pERK (pERK:tERK) in A375 cells. Conditions: A375 (BRAF p.V600E); 100 nM. Here is the method: Materials and Methods: A549 or A375 cells were seeded in 6-well plates at an appropriate seeding density on day 0. On day 2 or 3, after checking the health and confluency of cells, the media was aspirated and replaced with 1 mL media containing a predetermined concentration of compound and incubated for 2 hours. After 2 hours, the media was aspirated, and the cells washed 2 times with cold PBS. Cells were lysed on ice, with 50 uL 1×CST lysis buffer +1 mM PMSF for 5 minutes. After 5 minutes, cells were removed using a scraper and transferred to cold 1.5 mL tubes, and centrifuged for 10 min, 4° C., 14,000×g. Supernatant was gently removed and snap frozen in liquid nitrogen. Protein concentration of the lysate was determined using Bradford Reagent (analyzed using SpectraMax M2E) and diluted to 1 mg/mL or pERK or 1.5 mg/mL for pMEK analysis. […] All dilutions were in Milk-free antibody diluent.
A549 or […] cells were treated in duplicate for two hours with compounds at varying concentrations. After two hours, the cells were lysed, snap frozen, and stored at −80° C. After storage, the lysate was quantified with the Bradford assay. Before the lysates were prepared to run on the Jess, the lysates were diluted to 1 mg/mL for pERK analysis and 1.5 mg/mL pMEK analysis using quantitative Western blotting. ERK and MEK phosphorylation levels were estimated by taking the ratio of phospho-protein to total protein and normalizing to the DMSO control.
as §5

Data set [15] deals with phospho-ERK in SK-MEL-2 cells. The data set is described as follows: pERK/tERK ratio in SK-MEL-2 melanoma model. Type of data set: cell-based. The conditions noted are these: SK-MEL-2 (NRAS p.Q61R); 100 nM. Here is the method:
as §1, §2, §3, §4, §5

For data set [16], the system named is phospho-ERK in MM127 cells. Kind of data set: pERK/tERK ratio in MM127 melanoma model. The conditions noted are these: MM127 (NRAS p.G13R, BRAF p.G464E); 100 nM. It is filed as cell-based. Here is the method:
as §1, §2, §3, §4, §5

The subject of data set [17] is phospho-ERK in MeWo cells. The data set is described as follows: pERK/tERK ratio in MeWo melanoma model. It is filed as cell-based. Conditions: MeWo (NF1 LoF); 100 nM. As to the method:
as §1, §2, §3, §4, §5

Data set [18] has as its system phospho-MEK in MM127 cells. The data set is described as follows: pMEK/tMEK ratio in MM127 melanoma model. Type of data set: cell-based. Conditions: MM127 (NRAS p.G13R, BRAF p.G464E); 100 nM. As to the method: as §1, §2, §3, §4, §5
The subject of data set [19] is phospho-ERK in MM415 cells. The data set is described as follows: pERK/tERK ratio in MM415 melanoma model. Type of data set: cell-based. The conditions noted are these: MM415 (NRAS p.Q61L); 100 nM. As to the method:
as §1, §2, §3, §4, §5

With `Cn1cnc2c(F)c(Nc3ccc(Br)cc3F)c(C(=O)NOCCO)cc21` [Binimetinib], the “pMEK/tMEK ratio normalized to DMSO” value in [1] amounted to 3.291; in [3], 3.055; in data set [5], 2.649; in [6], 1.055; in data set [7] it was 1.062; in data set [9], 2.587. Further, the “pMEK/tMEK ratio normalized to DMSO” value in [11] amounted to 7.42; in data set [13], 6.489; in [18] it was 3.009. Moreover, the “pERK/tERK ratio normalized to DMSO” value in [2] is recorded as 0.203; in data set [4], 0.139; in data set [10], 0.082; in data set [12] it was 0.079; in data set [14], 0.136; in data set [15], 0.125. Moreover, the “pERK/tERK ratio normalized to DMSO” value in data set [16] is 0.199; in data set [17], 0.161; in [19], 0.056. For the same molecule, in data set [8], the “human plasma drug half-life” value is 3.5 h.

Source of the values: patent US20250179057A1, “MEK IMMUNE ONCOLOGY INHIBITORS AND THERAPEUTIC USES THEREOF” (Immuneering Corporation, priority 2022, published 2025).
